In patent publication US6737383B1, “Herbicidal oxadiazolidines” (priority 1999, dated 2004):

How the values were obtained:
bedstraw = test: Test B pre/postemergence bedstraw; type: in vivo, Galium aparine
Procedure, shortened: (§1)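 Herbicidal effect was estimated by eye on a ten-point control scale after plants spent twelve to sixteen days in a greenhouse following soil or foliar treatment. Foliar sprays targeted plants at one to four leaves; all doses were formulated in a non-phytotoxic solvent with surfactant.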

blackgrass = test: Test B pre/postemergence blackgrass; type: in vivo, Alopecurus myosuroides
Procedure, shortened: as §1

surinam grass = test: Test B pre/postemergence surinam grass; type: in vivo, Brachiaria decumbens
Procedure, shortened: as §1

cocklebur = test: Test B pre/postemergence cocklebur; type: in vivo, Xanthium strumarium
Procedure, shortened: as §1

corn = test: Test B pre/postemergence corn; type: in vivo, Zea mays
Procedure, shortened: as §1

crabgrass = test: Test B pre/postemergence crabgrass; type: in vivo, Digitaria sanguinalis
Procedure, shortened: as §1

giant foxtail = test: Test B pre/postemergence giant foxtail; type: in vivo, Setaria faberii
Procedure, shortened: as §1

morningglory = test: Test B pre/postemergence morningglory; type: in vivo, Ipomoea hederacea
Procedure, shortened: as §1

pigweed = test: Test B pre/postemergence pigweed; type: in vivo, Amaranthus retroflexus
Procedure, shortened: as §1

rape = test: Test B pre/postemergence rape; type: in vivo, Brassica napus
Procedure, shortened: as §1

soybean = test: Test B pre/postemergence soybean; type: in vivo, Glycine max
Procedure, shortened: as §1

sugar beet = test: Test B pre/postemergence sugar beet; type: in vivo, Beta vulgaris
Procedure, shortened: as §1

velvetleaf = test: Test B pre/postemergence velvetleaf; type: in vivo, Abutilon theophrasti
Procedure, shortened: as §1

wheat = test: Test B pre/postemergence wheat; type: in vivo, Triticum aestivum
Procedure, shortened: as §1

wild oat = test: Test B pre/postemergence wild oat; type: in vivo, Avena fatua
Procedure, shortened: as §1

purple nutsedge = test: Test B pre/postemergence purple nutsedge; type: in vivo, Cyperus rotundus
Procedure, shortened: as §1

[1] = Postemergence, Rate 62 g/ha, scale 0 to 10, 0 is no effect, 10 is complete control
[2] = Preemergence, Rate 125 g/ha, scale of 0 to 10 where 0 is no effect and 10 is complete control
[3] = Preemergence, Rate 250 g/ha, scale 0 (no effect) to 10 (complete control)
[4] = Rate 62 g/ha, Preemergence, scale 0 to 10
[5] = Rate 250 g/ha, Postemergence, scale 0 to 10, 0 is no effect, 10 is complete control
[6] = Rate 500 g/ha, Preemergence, scale 0 to 10 (0 no effect, 10 complete control)
[7] = Postemergence, Rate 125 g/ha, scale of 0 to 10 where 0 is no effect and 10 is complete control
[8] = Rate 500 g/ha, Postemergence, scale 0 to 10, 0 is no effect, 10 is complete control

CC(C)N(C(=O)n1oc(=O)n(CCCCl)c1=O)c1ccc(Cl)cc1 [Compound 749]
Plant response rating, Bedstraw (bedstraw; [1]): 3 | Plant response rating, Bedstraw (bedstraw; [2]): 0 | Bedstraw plant response rating (bedstraw; [3]): 0 | Bedstraw plant response rating (bedstraw; [4]): 0 | Bedstraw plant response rating (bedstraw; [5]): 3 | Bedstraw plant response rating (bedstraw; [6]): 4 | Plant response rating, Blackgrass (blackgrass; [1]): 5 | Blackgrass plant response rating (blackgrass; [7]): 5 | Plant response rating, Blackgrass (blackgrass; [2]): 2 | Blackgrass plant response rating (blackgrass; [3]): 6 | Blackgrass plant response rating (blackgrass; [4]): 0 | Blackgrass plant response rating (blackgrass; [5]): 6 | Blackgrass plant response rating (blackgrass; [8]): 6 | Blackgrass plant response rating (blackgrass; [6]): 9 | Plant response rating, B. signalgrass (surinam grass; [1]): 2 | B. signalgrass plant response rating (surinam grass; [7]): 2 | B. signalgrass plant response rating (surinam grass; Preemergence, Rate 62 g/ha, scale of 0 to 10 where 0 is no effect and 10 is complete control): 0 | Plant response rating, B. signalgrass (surinam grass; [2]): 2 | B. signalgrass plant response rating (surinam grass; [3]): 8 | B. signalgrass plant response rating (surinam grass; [5]): 3 | B. signalgrass plant response rating (surinam grass; [8]): 3 | B. signalgrass plant response rating (surinam grass; [6]): 10 | Plant response rating, Cocklebur (cocklebur; [1]): 0 | Cocklebur plant response rating (cocklebur; [7]): 2 | Plant response rating, Cocklebur (cocklebur; [2]): 0 | Cocklebur plant response rating (cocklebur; [3]): 0 | Cocklebur plant response rating (cocklebur; [5]): 4 | Cocklebur plant response rating (cocklebur; [8]): 4 | Cocklebur plant response rating (cocklebur; [6]): 0 | Plant response rating, Corn (corn; [1]): 0 | Corn plant response rating (corn; [7]): 0 | Plant response rating, Corn (corn; [2]): 0 | Corn plant response rating (corn; [3]): 0 | Corn plant response rating (corn; [4]): 0 | Corn plant response rating (corn; [5]): 0 | Corn plant response rating (corn; [8]): 1 | Corn plant response rating (corn; [6]): 0 | Plant response rating, Crabgrass (crabgrass; [1]): 4 | Crabgrass plant response rating (crabgrass; [7]): 8 | Plant response rating, Crabgrass (crabgrass; [2]): 10 | Crabgrass plant response rating (crabgrass; [3]): 10 | Crabgrass plant response rating (crabgrass; [4]): 9 | Crabgrass plant response rating (crabgrass; [5]): 9 | Crabgrass plant response rating (crabgrass; [8]): 9 | Crabgrass plant response rating (crabgrass; [6]): 10 | Plant response rating, Giant foxtail (giant foxtail; [1]): 3 | Giant foxtail plant response rating (giant foxtail; [7]): 5 | Plant response rating, Giant foxtail (giant foxtail; [2]): 10 | Giant foxtail plant response rating (giant foxtail; [3]): 10 | Giant foxtail plant response rating (giant foxtail; [4]): 9 | Giant foxtail plant response rating (giant foxtail; [5]): 9 | Giant foxtail plant response rating (giant foxtail; [8]): 9 | Giant foxtail plant response rating (giant foxtail; [6]): 10 | Plant response rating, Morningglory (morningglory; [1]): 2 | Morningglory plant response rating (morningglory; [7]): 3 | Plant response rating, Morningglory (morningglory; [2]): 0 | Morningglory plant response rating (morningglory; [3]): 0 | Morningglory plant response rating (morningglory; [4]): 0 | Morningglory plant response rating (morningglory; [5]): 5 | Morningglory plant response rating (morningglory; [8]): 5 | Morningglory plant response rating (morningglory; [6]): 0 | Plant response rating, Redroot pigweed (pigweed; [1]): 4 | Redroot pigweed plant response rating (pigweed; [7]): 4 | Plant response rating, Redroot pigweed (pigweed; [2]): 5 | Redroot pigweed plant response rating (pigweed; [3]): 7 | Redroot pigweed plant response rating (pigweed; [4]): 0 | Redroot pigweed plant response rating (pigweed; [5]): 4 | Redroot pigweed plant response rating (pigweed; [8]): 7 | Redroot pigweed plant response rating (pigweed; [6]): 9 | Plant response rating, Rape (rape; [1]): 2 | Rape plant response rating (rape; [7]): 2 | Plant response rating, Rape (rape; [2]): 0 | Rape plant response rating (rape; [3]): 0 | Rape plant response rating (rape; [4]): 0 | Rape plant response rating (rape; [5]): 6 | Rape plant response rating (rape; [8]): 6 | Rape plant response rating (rape; [6]): 5 | Plant response rating, Soybean (soybean; [1]): 3 | Soybean plant response rating (soybean; [7]): 4 | Plant response rating, Soybean (soybean; [2]): 0 | Soybean plant response rating (soybean; [3]): 2 | Soybean plant response rating (soybean; [4]): 0 | Soybean plant response rating (soybean; [5]): 5 | Soybean plant response rating (soybean; [8]): 5 | Soybean plant response rating (soybean; [6]): 3 | Plant response rating, Sugarbeets (sugar beet; [1]): 1 | Sugarbeets plant response rating (sugar beet; [7]): 3 | Plant response rating, Sugarbeets (sugar beet; [2]): 2 | Sugarbeets plant response rating (sugar beet; [3]): 6 | Sugarbeets plant response rating (sugar beet; [4]): 0 | Sugarbeets plant response rating (sugar beet; [5]): 4 | Sugarbeets plant response rating (sugar beet; [8]): 4 | Sugarbeets plant response rating (sugar beet; [6]): 7 | Plant response rating, Velvetleaf (velvetleaf; [1]): 0 | Velvetleaf plant response rating (velvetleaf; [7]): 3 | Plant response rating, Velvetleaf (velvetleaf; [2]): 0 | Velvetleaf plant response rating (velvetleaf; [3]): 0 | Velvetleaf plant response rating (velvetleaf; [4]): 0 | Velvetleaf plant response rating (velvetleaf; [5]): 3 | Velvetleaf plant response rating (velvetleaf; [8]): 3 | Velvetleaf plant response rating (velvetleaf; [6]): 2 | Plant response rating, Wheat (wheat; [1]): 0 | Wheat plant response rating (wheat; [7]): 0 | Plant response rating, Wheat (wheat; [2]): 0 | Wheat plant response rating (wheat; [3]): 1 | Wheat plant response rating (wheat; [4]): 0 | Wheat plant response rating (wheat; [5]): 0 | Wheat plant response rating (wheat; [8]): 0 | Wheat plant response rating (wheat; [6]): 1 | Plant response rating, Wild oats (wild oat; [1]): 0 | Wild oats plant response rating (wild oat; [7]): 0 | Plant response rating, Wild oats (wild oat; [2]): 0 | Wild oats plant response rating (wild oat; [3]): 5 | Wild oats plant response rating (wild oat; [4]): 0 | Wild oats plant response rating (wild oat; [5]): 0 | Wild oats plant response rating (wild oat; [8]): 2 | Wild oats plant response rating (wild oat; [6]): 8 | Plant response rating, Nutsedge (purple nutsedge; [1]): 0 | Nutsedge plant response rating (purple nutsedge; [7]): 0 | Plant response rating, Nutsedge (purple nutsedge; [2]): 0 | Nutsedge plant response rating (purple nutsedge; [3]): 0 | Nutsedge plant response rating (purple nutsedge; [4]): 0 | Nutsedge plant response rating (purple nutsedge; [5]): 0 | Nutsedge plant response rating (purple nutsedge; [8]): 0
